# Measurements reported in paper PMC10900488, “Synthesis and Evaluation of (Bis)benzyltetrahydroisoquinoline Alkaloids as Antiparasitic Agents” (JACS Au, 2024).
# Like-named read-outs stand apart in the source and are kept apart here.
# Tests used:
# [1] = Mammalian toxicity, MTT colorimetric; type: cell-based, murine; conditions: mouse
# Procedure: Table 1 depicts the antileishmanial (L. infantum) activity evaluation performed against both the amastigote form (evaluated microscopically using an ex vivo intracellular model of mice macrophages) and the promastigote one (using an MTT colorimetric method).[32],[33] The cytotoxicity was evaluated against NCTC cells using an MTT colorimetric method and the selectivity index was determined using the ratio between the CC50 values (NCTC cells) and the IC50 values (amastigotes).[32] […] With respect to the substituents on the C ring, larger, hydrophobic groups conferred greater bioactivity (e.g., 9b–d), whereas small, hydrophilic groups such as a hydroxyl group afford modest to poor bioactivity. […]
# Murine conjunctive fibroblasts NCTC clone 929 (ATCC) were maintained in 10% foetal calf serum supplemented RPMI-1640 medium (pH 7.2) at 37 °C in a humidified incubator with 5% CO2. […]
# (§1) Biological activity assays […]
# (§2) NCTC cells (6 × 10^4/well) were added to a 96-well plate. Treatments of the cells with selected compounds (serially diluted 1.5 to 200 μM) was performed in a humidified incubator for 96 h at 37 °C and with 5% CO2.
# (§3) The MTT colorimetric method was used to determine the 50% cytotoxic concentration (CC50) and the selectivity index (CC50 against NCTC cells/IC50 against amastigotes).15 […]
# (§4) […] At 6 h and 24 h post-treatment, a 1 mL aliquot was taken for imaging. The cell cycle experiment was preformed twice independently.
# (§5) Generation of mNG::RAD51 tagged cell line
# (§6) The single-stranded DNA-binding protein RAD51, associated with DNA Repair, LmxM.28.0550 was tagged with endogenous fluorescent protein mNeonGreen (mNG) at the N-terminus. […]
# Primers for constructs and sgRNA were designed using LeishGEdit (http://www.leishGEdit.net).
# PCR was at 94 °C for 5 min, followed by 35 cycles at 94 °C (15 sec), 65 °C (15 sec), 72 °C (2 min) then finally 72 °C (1 min).
# PCR was at 94 °C for 30 sec, followed by 30 cycles at 94 °C (30 sec), 60 °C (30 sec), 72 °C (30 sec) then finally 72 °C (2 min). […] Combined PCR products were precipitated for 20 min with 10 μL 3M sodium acetate and 300 μL EtOH, pelleted at 14000 min-1 30 min, washed once with 70% EtOH, re-pelleted and resuspended in […]
# Promastigotes (1 × 10^7 cells) were combined with PCR products and transfected using the Amaxa Nucleofector II.17 Electroporation was performed using 2 mm cuvettes on the X-100 program, followed by immediate suspension in pre-warmed M199 medium. Successful transfectants were selected with 20 μg mL-1 Puromycin 15 h after transfection, taking 4 days to reach stable growth in culture. mNG::RAD51 nuclear foci studies mNG::RAD51 promastigotes (5 × 10^6 cells mL-1) in 7 mL of M199 medium were treated with 7 μL o f compound (S)-9a or (S)-9b dissolved in DMSO giving a final concentration of 50 μM. Phleomycin was used as a positive control at a final concentration of 25 μg mL-1. At T = 0, 15, 30, 60 min, and 2, 6, 24 h post-treatment a 0.8 mL aliquot was taken for imaging.
# T. cruzi amastigotes = assay: Antiamastigote assay (T. cruzi), ex vivo intracellular model using mice macrophages, microscopy; type: cell-based, Trypanosoma (T.) cruzi
# Procedure: (§7) T. cruzi also assumes several cell morphologies during its lifecycle, which differ between the insect vector and mammalian host. In the latter environment, the parasite transitions between extracellular bloodstream trypomastigotes and intracellular amastigotes; both forms are clinically relevant, particularly during the acute stage of Chagas disease.[34] In this work, antitrypanosomal activity was tested against both the amastigote form (evaluated microscopically using an ex vivo intracellular model using mice macrophages) and the trypomastigote form (using the resazurin in vitro assay).[33],[35] […] In silico predictions of pharmacokinetic profiles were carried out using the SwissADME webtool (see the Supporting Information for details).[36] […]
# (§8) […] Cultivation was performed in 2% fetal calf serum supplemented RPMI-1640 medium.
# (§9) The trypomastigotes were maintained in a humidified incubator at 37 °C and with 5% CO2. […]
# (§10) Peritoneal macrophages were obtained via washing the peritoneal cavity of BALB/c mice with 10% foetal calf serum supplemented RPMI-1640 medium (pH 7.2). The macrophages were maintained in a humidified incubator at 37 °C and with 5% CO2.
# as §1
# Peritoneal macrophages (1 × 10^5 cells/well) obtained from the peritoneal cavity of BALB/C mice were added to 16-well chambers (NUNC, Thermo Fischer Scientific). The cells were infected with trypomastigotes (10:1 parasites/macrophage) for 2 h. Then treatment of the infected macrophages with selected compounds (serially diluted 1.2 to 100 μM) was performed in a humidified incubator for 48 h at 37 °C and with 5% CO2. The treated cells were fixed on slides using methanol, stained with Giemsa and observed under a light microscope (EVOS M5000, Thermo, USA) with digital image equipment. The infection index was used in order to determine the half inhibitory concentration (IC50) (no. infected macrophages × no. amastigotes / total no.
# T. cruzi trypomastigotes = assay: Antitrypomastigote assay (T. cruzi), resazurin; type: cell-based, Trypanosoma (T.) cruzi; conditions: 24 h, read-out: T. cruzi IC50 trypomastigotes
# Procedure: as §7, §8, §9, §1
# The half inhibitory concentration (IC50) was determined from a sigmoidal regression of the concentration-response curves generated in GraphPadPrism7. […]
# Treatment of the cells with selected compounds (serially diluted 1.2 to 150 μM) was performed in a humidified incubator in RPMI 1640 medium for 24 h at 37 °C and with 5% CO2. Resazurin (0.011% in PBS) was added subsequently to verify parasite viability. Benznidazole was used as a standard drug. The optical density was determined at 570 nm using the FilterMax F5 (Molecular Devices). […]
# [2] = test system: L. infantum promastigotes; assay: Antipromastigote assay (L. infantum), MTT colorimetric; type: cell-based, Leishmania (L.) infantum; conditions: 48 h; for IC50: Leishmania infantum, read-out: L. infantum IC50 promastigotes
# Procedure: (§11) Table 1 depicts the antileishmanial (L. infantum) activity evaluation performed against both the amastigote form (evaluated microscopically using an ex vivo intracellular model of mice macrophages) and the promastigote one (using an MTT colorimetric method).[32],[33] The cytotoxicity was evaluated against NCTC cells using an MTT colorimetric method and the selectivity index was determined using the ratio between the CC50 values (NCTC cells) and the IC50 values (amastigotes).[32] […] With respect to the substituents on the C ring, larger, hydrophobic groups conferred greater bioactivity (e.g., 9b–d), whereas small, hydrophilic groups such as a hydroxyl group afford modest to poor bioactivity.
# (§12) Leishmania (L.) infantum (MHOM/BR/1972/LD) amastigotes were obtained from golden hamsters (Mesocricetus auratus) spleens following 60-70 days of infection via differential centrifugation. The Stauber method was used to determine the number of parasites.12 […]
# Biological activity assays
# Antipromastigote Assay (L. infantum)
# L. infantum promastigotes (1 × 10^6 cells/well) were added to a 96-well plates. Treatment of the cells with selected compounds (serially diluted 0.14 to 200 μM) was performed in M199 medium supplemented with 0.25% hemin and 10% fetal bovine serum for 48 h at 24 °C. The MTT colorimetric assay was used to determine the activity (IC50) of the compounds. Miltefosine was used as a standard drug and untreated promastigotes were used as a negative control. The half inhibitory concentration (IC50) was determined from a sigmoidal regression of the concentration-response curves generated in GraphPadPrism7. […]
# L. infantum amastigotes = assay: Antiamastigote assay (L. infantum), ex vivo intracellular model of mice macrophages, microscopy; type: cell-based, Leishmania (L.) infantum; conditions: 96 h, read-out: L. infantum IC50 amastigotes
# Procedure: as §11, §12, §10, §1
# Antiamastigote Assay (L. infantum)
# Peritoneal macrophages (1 × 10^5/well) were added to a 16-well slide chambers (NUNC) and incubated with 5% CO2 at 37 °C. The cells were subsequently infected with L. infantum amastigotes (10:1 amastigotes/macrophage) for 24 h. Treatment of the cells with selected compounds (serially diluted 1.2 to 150 μM) was performed in a humidified incubator for 96 h at 37 °C and with 5% CO2. Untreated cells were used as a negative control and miltefosine was used as a standard drug. The treated cells were fixed on slides with methanol, stained with Giemsa and observed under a light microscope.13 The infection index was used in order to determine the half inhibitory concentration (IC50) (no. infected macrophages × no. amastigotes / total no. […]
# mNG::RAD51 promastigotes = assay: mNG::RAD51 nuclear foci studies; type: cell-based, Leishmania (L.) mexicana; conditions: 25 μg mL-1, from 2 h posttreatment
# Description: DSBs often lead to cytotoxicity, which could be an explanation for the observed compound activity.[44]−[46]Leishmania employ the RAD51 DNA recombinase protein as part of its DNA repair machinery to fix naturally occurring nuclear DSBs via homologous recombination.[47]−[50] Using a CRISPR/Cas9 gene editing strategy,[51] we generated a genetically modified cell line with mNeonGreen tagged RAD51. This would allow observation of fluorescent RAD51 protein recruitment to foci in the nucleus corresponding to DSB accumulation, as has been shown in T. brucei.[52],[53] Phleomycin was used as a positive control to induce DSBs,[54] which led to the expected observation of accumulation of RAD51 as green dots in the nucleus in 80% of cells from as early as 2 h posttreatment (Figure 2D). […] We can therefore conclude that the BI compounds tested are unlikely to act via DSBs (albeit this methodology is sensitive only to DSBs in nuclear DNA), and another mechanism of cell cycle disruption is responsible for the breakdown in the healthy cell cycle.
# as §2, §3
# […] […] Statistical significance was derived from a two-tailed T-test.
# The Graph Pad Prism 5 software was used to perform sigmoid dose-response curves for the determination of […]
# as §4, §5, §6
# Primers for constructs and sgRNA were designed using LeishGEdit (http://www.leishGEdit.net). […]
# [3] = Trypanosoma cruzi, Peritoneal macrophage, 48 h, ± SD, read-out: T. cruzi IC50 amastigotes
# [4] = Trypanosoma cruzi, ± SD, resazurin
# [5] = Leishmania infantum, Peritoneal macrophage, ± SD, intracellular, peritoneal macrophages
Compound,IC50 (T. cruzi amastigotes; [3]),IC50 (T. cruzi trypomastigotes; [4]),"IC50 ([2]; ± SD, MTT)",IC50 (L. infantum amastigotes; [5]),CC50 at 96 h [1],other results
"COc1ccc(C[C@H]2c3cc(OC)c(OC)cc3CCN2C)cc1O [(S)-10a, (+)-laudanidine]",,,,,,"CC50 at 96 h ([1]; ± SD, NCTC cells, MTT, 96 h, read-out: CC50): > 200 µM; IC50 (T. cruzi amastigotes; Trypanosoma cruzi, Peritoneal macrophage, 48 h, read-out: T. cruzi IC50 amastigotes, ± SD): < 10 µM; IC50 (T. cruzi amastigotes; read-out: T. cruzi IC50 amastigotes, ± SD, peritoneal macrophages, 48 h): 5.9 ± 0.9 µM; IC50 (T. cruzi trypomastigotes; Trypanosoma cruzi): > 150 µM; IC50 [2]: 95.4 ± 2 µM; IC50 (L. infantum amastigotes; Leishmania infantum, Peritoneal macrophage): > 150 µM"
"COc1cc2c(cc1OC)[C@H](Cc1ccc(O)cc1)N(C)CC2 [(S)-10b, (+)-armepavine]",> 100 µM,124 ± 2.3 µM,36.2 ± 5.2 µM,> 150 µM,> 200 µM,
"COc1cc2c(cc1OC)[C@@H](Cc1ccc(O)c(Oc3ccc(C[C@H]4c5cc(OC)c(OC)cc5CCN4C)cc3)c1)N(C)CC2 [(S,R)-13]",4.4 ± 0.4 µM,4.2 ± 4.8 µM,5.7 ± 1.3 µM,3.6 ± 0.3 µM,15.6 ± 1.6 µM,
"COc1cc2c(cc1OC)[C@H](Cc1ccc(Oc3cc(C[C@H]4c5cc(OC)c(OC)cc5CCN4C)ccc3O)cc1)N(C)CC2 [(S,S)-13, (+)-dauricine]",2.3 ± 1.1 µM,5.1 ± 4.8 µM,5.5 ± 0.6 µM,> 150 µM,15.9 ± 0.8 µM,
Phleomycin [reference compound],,,,,,cells with accumulation of RAD51 in the nucleus (mNG::RAD51 promastigotes): 80%

# Continued, in another order:
IC50 (T. cruzi amastigotes; [3]),IC50 (T. cruzi trypomastigotes; [4]),"IC50 ([2]; ± SD, MTT)",IC50 (L. infantum amastigotes; [5]),Compound,CC50 at 96 h [1],other results
3.3 ± 0.01 µM,11.1 ± 1.7 µM,5.2 ± 1.3 µM,> 150 µM,COc1ccc(COc2ccc(C[C@H]3c4cc(OC)c(OC)cc4CCN3C)cc2Br)cc1 [(S)-9c],6.3 ± 2.3 µM,
3.2 ± 0.5 µM,< 10 µM,3.7 ± 0.2 µM,< 10 µM,COc1cc2c(cc1OC)[C@H](Cc1ccc(OCc3ccccc3)cc1)N(C)CC2 [(S)-9d],6.6 ± 1.5 µM,"IC50 (T. cruzi trypomastigotes; ± SD, resazurin): 7.6 ± 0.4 µM; IC50 (L. infantum amastigotes; ± SD, intracellular, peritoneal macrophages): 7.5 ± 2.2 µM"
> 100 µM,1.7 ± 0.3 µM,0.7 ± 0.1 µM,> 150 µM,"COc1ccc(COc2ccc(C[C@H]3c4cc(OC)c(OC)cc4CCN3C)cc2Oc2ccc(C[C@@H]3c4cc(OC)c(OC)cc4CCN3C)cc2)cc1 [(S,R)-12]",4.7 ± 1.7 µM,"L. infantum IC50 promastigotes ([2]; ± SD, MTT): submicromolar"
> 100 µM,3.7 ± 3.6 µM,0.7 ± 0.01 µM,> 150 µM,"COc1cc2c(cc1OC)[C@H](Cc1ccc(Oc3cc(C[C@H]4c5cc(OC)c(OC)cc5CCN4C)ccc3OC)cc1)N(C)CC2 [(S,S)-11, (+)-O-methylthalibrine]",11.4 ± 0.2 µM,
> 100 µM,5.6 ± 2.1 µM,1.1 ± 0.5 µM,> 150 µM,"COc1ccc(COc2ccc(C[C@H]3c4cc(OC)c(OC)cc4CCN3C)cc2Oc2ccc(C[C@H]3c4cc(OC)c(OC)cc4CCN3C)cc2)cc1 [(S,S)-12]",20.8 ± 5.4 µM,
